Data as given in patent publication EP0407651A2, “Use of 1,3-diisobutyl-8-methylxanthine as a bronchodilator and antiallergy agent” (J. URIACH & CIA. S.A., priority 1989, dated 1991).

How the values were obtained:
[1] = system: Isolated guinea pig trachea; assay: Isolated guinea pig trachea relaxation (spontaneous tonus, organ bath); format: cell-based; settings: Cavia porcellus; 50% relaxation of spontaneous tonus; relaxation by 1 mcM isoprenaline = 100%; read-out: Guinea pig trachea EC₅₀
Experimental: This in vitro test was carried out according to the method of Emmerson and Mackay (J. Pharm. Pharmacol. 1979, 31, 798). The trachea was excised from guinea pigs, placed in Krebs Henseleit's solution at 37°C and gassed with 95% O₂ and 5% CO₂. The trachea strip was mounted in an organ bath and attached to a tension transducer preloaded with […]. Test compounds were cumulatively added to the organ bath and concentrations causing 50% relaxation of the spontaneous tonus of the tracheal tissue (EC₅₀) were calculated (Table 1). The relaxation induced by 1 mcM isoprenaline was taken as 100%.

[2] = system: Histamine-induced bronchospasm in anaesthetized guinea pigs; assay: Histamine-induced bronchospasm in anaesthetized guinea pigs (Konzett and Rössler); format: in vivo; settings: histamine 10 mcg/Kg i.v., test compound i.p., maximum inhibitory effect at 10, 30, 60 min
Experimental: This test was performed in anaesthetized animals according to the method of Konzett and Rössler (Arch. Exp. Pathol.Pharmacol. 1940, 195, 71). The activity was determined by calculating the dose of the active compound required to produce 50% inhibition of the bronchospasm (ID₅₀) (Table 1). Histamine was given intravenously at 10 mcg/Kg, before and 10, 30 and 60 minutes after intraperitoneal administration of test compounds. Maximum inhibitory effects were taken for calculation of ID₅₀ values.

[3] = system: Histamine aerosol-induced bronchospasm; assay: Histamine aerosol-induced bronchospasm in conscious guinea pigs (protection from death); format: in vivo; settings: for Histamine bronchospasm Hist. aerosol PC₅₀ (inhal) / Histamine bronchospasm Hist. aerosol PD₅₀ (oral): conscious guinea pigs; for Histamine bronchospasm Hist. aerosol PC₅₀ (inhal): ethanolic solution nebulized 1 mL/min for 2 min, histamine challenge 3 min later, concentration protecting 50% from lethality; for Histamine bronchospasm Hist. aerosol PD₅₀ (oral): one hour before histamine aerosol (0.2%), dose protecting 50% of animals from death; for Protection from death % / Protection from death n/N: formulation B by inhalation; for Protection from death n/N: survivors versus total number of animals
Experimental: This test is based on the methods of Van P+roosdif-Hartzema (Inter. Ppharmacodynamic 1958, 115, 322) and Loew (J. Pharmac.Exp.Ther. 1945, 83, 120) with slight modifications. Thus, conscious guinea pigs were subjected to inhalation of histamine (0.2% aqueous solution) nebulized by an ultrasonic device (DeVilvis™, Ultra-Neb 99) during 30 seconds in a cylindric plastic chamber of 15 liters of volume, at a rate of 1 mL/min. Test compounds were given orally, one hour before the challenge of histamine, and the dose needed to protect from death 50% of the animals was determined (PD₅₀) (Table 1).
Using the same model, test compounds were also given by inhalation. They were dissolved in ethanol at different concentrations (0.45 mM to 28mM) and aerosolized by the ultrasonic nebulizer mentioned above at a rate of 1 mL/min, during 2 minutes. Three minutes later, the animals were subjected to the challenge of histamine and PC₅₀ values were determined (Table 1). Controls were subjected to inhalation of the vehicle (ethanol). PC₅₀ value is defined as the concentration of test compound in the ethanolic solution that protects 50% of animals from lethality when nebulized as indicated above.
Finally, studies have been made subjecting the animals to inhalation of one or more puffs of 5 mg/mL of 1,3-diisobutyl-8-methylxanthine (UR-6032) solution formulation B (see Example 1). Animals were forced to inhale UR-6032 for 5 minutes into the cylindric plastic chamber before the challenge with ultrasonic nebulized histamine (see above) and protection from death with respect to controls was determined (Table 2).

[4] = system: rat peritoneal mast cell preparations; assay: Histamine release induced by compound 48/80 in rat mast cell preparations; format: cell-based; settings: 20 min, 1 mM test compound, compound 48/80 10⁻⁶ M, 37°C, read-out: Histamine release % inhib. at 1 mM
Experimental: Anaesthetized rats were bled by cardiac puncture and then 10 mL of Tyrode's-gel solution (0.1% gelatine in Tyrode's buffer, pH 7.2) containing 50 mcg heparin was injected into the peritoneal cavity. Alter a gentle massage of the abdomen, the peritoneal cell suspension was harvested. Mast cells were suspended in Tyrode's solution (10⁶ cells/mL). Aliquots of 0.2 mL of the mast cell suspension were incubated at 37°C for 20 minutes with 10 mcL of compound 48/80 (10⁻⁶ M final concentration), a potent histamine release inducer. The reaction was stopped by introducing the tubes in a ice-ethanol bath. The cells were sedi-mented by centrifugation and the histamine in the supernatant was determined by the fluorimetric method of May (J. Allergy, 1970, 46, 12). The sedimented pellets were treated with 0.1 N HCl at 100°C to liberate the non-released histamine and to determine it by the same method of May. Test compounds were added to the incubation medium dissolved in Tyrode's buffer at different concentrations (final volume: 1 mL). Control samples contained the same volume of Tyrode's buffer. The histamine release in the control samples was taken as 100%, and the percentage of the histamine release inhibition of test samples was calculated with respect to controls. (Table 3).

[5] = system: Passive cutaneous anaphylaxis reaction (PCA); assay: Passive cutaneous anaphylaxis reaction (PCA) in the rat; format: in vivo; settings: 30 minutes before egg albumin and Evans' blue challenge
Experimental: The animals were passively sensitized by intradermal injection of 0.1 mL of five-fold diluted rat reagenic antiserum. Injections were made at 4 locations on the shaved back skin and 48 h later the test drug was administered intraperitoneally. Thirty minutes later, the animals were challenged by intravenous injection of egg albumin and Evans' blue dye. The dermal reaction was measured colorimetrically by the method of Harata (J.Pharm.Pharmac., 1971, 23, 218) as the extent of the blueing reaction at the sensitized intradermal injection site, and the percent inhibition values with respect to controls were calculated (Table 3).

[6] = system: Egg albumin-induced bronchospasm in sensitized guinea pigs; assay: Egg albumin-induced bronchospasm in sensitized guinea pigs (Konzett and Rössler); format: in vivo; settings: egg albumin 0.06% w/v, 1 mL/Kg i.v., one minute after test compound
Experimental: The experimental procedure of Konzett and Rössler was followed (Arch. Exp. Pathol.Pharmacol. 1940, 195, 71). A single intravenous injection of 1 mL/Kg of egg albumin (0.06%, w/v) was given to sensitized animals one minute after intravenous administration of UR-6032 at different concentrations.

[7] = Acute oral toxicity in rats; format: in vivo; settings: both sexes rats

CC(C)Cn1c(=O)n(C)c(=O)c2[nH]cnc21 [IBMX, 1-methyl-3-isobutylxanthine]
EC50 [1]: 1.1 µM | Histamine bronchospasm Hist. i.v. ID₅₀ [2]: 2.50 mg/Kg,i.p. | Histamine bronchospasm Hist. aerosol PC₅₀ (inhal) [3]: ^b 15-20 mM | inhibition at 1000 µM [4]: 37% | PCA % inhibition at 2.5 mg/Kg,i.p. [5]: 86%

Cc1nc2c([nH]1)c(=O)n(CC(C)C)c(=O)n2CC(C)C [UR-6032, 1,3-diisobutyl-8-methylxanthine]
EC50 [1]: 0.1 µM | Histamine bronchospasm Hist. i.v. ID₅₀ [2]: 0.36 mg/Kg,i.p. | Histamine bronchospasm Hist. aerosol PC₅₀ (inhal) [3]: 0.5 mM | Histamine bronchospasm Hist. aerosol PD₅₀ (oral) [3]: 1 mg/kg | Protection from death % ([3]; 1 puff): 80% | Protection from death n/N ([3]; 1 puff): 4/5 | Protection from death % ([3]; 2 puffs): 100% | Protection from death n/N ([3]; 2 puffs): 3/3 | Protection from death % ([3]; 3 puffs): 100% | Protection from death n/N ([3]; 3 puffs): 3/3 | active doses given by inhalation ([3]; inhalation): < 0.5 mg/animal | inhibition at 1000 µM [4]: 56% | Egg albumin bronchospasm ID₅₀ [6]: 0.5-1 mg/Kg,i.p. | PCA % inhibition at 2.5 mg/Kg,i.p. [5]: 39% | acute oral toxicity [7]: 50 mg/kg

Cn1c(=O)c2[nH]cnc2n(C)c1=O [Theophylline, 1,3-dimethylxanthine]
EC50 [1]: 31 µM | Histamine bronchospasm Hist. i.v. ID₅₀ [2]: 4.90 mg/Kg,i.p. | Histamine bronchospasm Hist. aerosol PC₅₀ (inhal) [3]: 25 mM | Histamine bronchospasm Hist. aerosol PD₅₀ (oral) [3]: > 100 mg/kg | inhibition at 1000 µM [4]: 25% | PCA % inhibition at 2.5 mg/Kg,i.p. [5]: 8%
